In ChEMBL document CHEMBL3885861, “Open TG-GATES”:

Organism: Rattus norvegicus
Assay: Open TG-GATES - Regimen: Single
Assay type: toxicity, organism-based, Sprague-Dawley
Parameters: regimen Single, gender Male, age 6 weeks
Details: in vivo, iv, route intravenous injection; for KIDNEY_L / KIDNEY_R / KIDNEY_TOTAL: tissue Kidney; for LIVER: tissue Liver; for ALP / ALT / AST / CRE / DBIL / GLC / IP / K / LDH / PL / RALB / TBIL / TC / TG / TP / gamma-GTP / BUN: tissue Plasma
[1] = 10 mg/kg, 3 h, tissue Blood, dose level Low
[2] = 10 mg/kg, 6 h, tissue Blood, dose level Low
[3] = 10 mg/kg, 9 h, tissue Blood, dose level Low
[4] = 10 mg/kg, 24 h, tissue Blood, dose level Low
[5] = 30 mg/kg, 3 h, tissue Blood, dose level Middle

## GENTAMICIN
[1]
  Lym: 78.8%
  MCH: 21.8 pg
  MCHC: 34.1%
  MCV: 64 fL
  Mono: 3%
  Neu: 17%
  PT: 16.2 s
  Plat: 121.8 x10_4/uL
  RBC: 595.2 x10_4/ul
  Ret: 7.2%
  WBC: 114 x10_2/uL
10 mg/kg, 3 h, dose level Low
  KIDNEY_L: 0.9 g
  KIDNEY_R: 1 g
  KIDNEY_TOTAL: 1.9 g
  LIVER: 9.7 g
  ALP: 1674.8 IU/L
  ALT: 40.6 IU/L
  AST: 72.8 IU/L
  CRE: 0.2 mg/dL
  DBIL: 0.002 mg/dL
  GLC: 181.2 mg/dL
  IP: 7.8 mg/dL
  K: 4.2 meq/L
  LDH: 188 IU/L
  PL: 131.8 mg/dL
  RALB: 2.9 g/dL
  TBIL: 0.018 mg/dL
  TC: 66.6 mg/dL
  TG: 91.4 mg/dL
  TP: 5.3 g/dL
  gamma-GTP: 1.4 IU/L
10 mg/kg, 6 h, dose level Low
  TERMINAL_BW: 207.8 g
  KIDNEY_L: 0.9 g
  KIDNEY_R: 0.9 g
  KIDNEY_TOTAL: 1.8 g
  LIVER: 8.7 g
  ALP: 1173 IU/L
  ALT: 36.4 IU/L
  AST: 68.8 IU/L
  CRE: 0.2 mg/dL
  DBIL: 0.002 mg/dL
  GLC: 175 mg/dL
  IP: 9.1 mg/dL
  K: 4.3 meq/L
  LDH: 216.2 IU/L
  PL: 139.6 mg/dL
  RALB: 3 g/dL
  TBIL: 0.022 mg/dL
  TC: 77.6 mg/dL
  TG: 74.8 mg/dL
  TP: 5.4 g/dL
  gamma-GTP: 1.6 IU/L
[2]
  APTT: 23.6 s
  Bas: 0%
  Eos: 0.8%
  Fbg: 282.6 mg/dL
  Ht: 39.5%
  Lym: 83%
  MCH: 21 pg
  Mono: 2.8%
  PT: 15.9 s
  Plat: 131.7 x10_4/uL
  RBC: 634.2 x10_4/ul
  Ret: 6.8%
  WBC: 102.7 x10_2/uL
10 mg/kg, 9 h, dose level Low
  TERMINAL_BW: 208.7 g
  KIDNEY_L: 1 g
  KIDNEY_R: 1 g
  KIDNEY_TOTAL: 1.9 g
  LIVER: 8.2 g
  ALP: 1357 IU/L
  AST: 66.4 IU/L
  BUN: 11 mg/dL
  CRE: 0.1 mg/dL
  DBIL: 0.004 mg/dL
  GLC: 180.6 mg/dL
  IP: 8.9 mg/dL
  K: 4.2 meq/L
  LDH: 120.2 IU/L
  PL: 128 mg/dL
  RALB: 3 g/dL
  TBIL: 0.026 mg/dL
  TC: 69 mg/dL
  TG: 56 mg/dL
  TP: 5.4 g/dL
  gamma-GTP: 1 IU/L
[3]
  APTT: 23.8 s
  Bas: 0%
  Eos: 0.8%
  Fbg: 317.6 mg/dL
  Ht: 39.5%
  Lym: 80.6%
  MCHC: 33.4%
  Mono: 3.2%
  PT: 16.2 s
  Plat: 125.8 x10_4/uL
  RBC: 642.4 x10_4/ul
  Ret: 6.1%
  WBC: 90.1 x10_2/uL
10 mg/kg, 24 h, dose level Low
  TERMINAL_BW: 226 g
  KIDNEY_L: 1 g
  KIDNEY_R: 1 g
  KIDNEY_TOTAL: 1.9 g
  LIVER: 10.2 g
  ALP: 1490.2 IU/L
  ALT: 37.8 IU/L
  AST: 68.2 IU/L
  BUN: 16.6 mg/dL
  CRE: 0.2 mg/dL
  DBIL: 0 mg/dL
  IP: 6.4 mg/dL
  K: 4.5 meq/L
  LDH: 171.6 IU/L
  PL: 139.2 mg/dL
  RALB: 2.9 g/dL
  TBIL: 0.01 mg/dL
  TC: 69.4 mg/dL
  TG: 100 mg/dL
  TP: 5.4 g/dL
  gamma-GTP: 1.2 IU/L
[4]
  APTT: 23.6 s
  Bas: 0%
  Eos: 0.8%
  Fbg: 300.6 mg/dL
  Ht: 38.7%
  Lym: 80.4%
  MCHC: 34%
  MCV: 61.6 fL
  Mono: 3.2%
  Plat: 126.1 x10_4/uL
  RBC: 628.8 x10_4/ul
  Ret: 6.2%
  WBC: 119.3 x10_2/uL
30 mg/kg, 3 h, dose level Middle
  TERMINAL_BW: 214 g
[5]
  APTT: 23.2 s
  Bas: 0%
  Eos: 1%
  Fbg: 287.4 mg/dL
  Ht: 39.3%
  Lym: 79%
  MCHC: 34%
